“And” between values parts separate entries of the source, which are not always exact repeats. Equal values may be shown once.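 48-hour exposure; five concentrations; linearly interpolated endpoints. The concentration for 50% growth inhibition is given as GI50. TGI denotes the concentration required for complete inhibition of growth.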
How the values were obtained:
Assay in all cases: inhibition of tumour cell growth, NCI panel, 48 h
[1] = test system: NCI-H23 lung
[2] = test system: HT29 colon
[3] = test system: SK-MEL-5 melanoma
[4] = test system: HCT-15 colon
[5] = test system: SNB-19 CNS
[6] = test system: OVCAR-8 ovarian
[7] = test system: UO-31 renal
[8] = test system: RPMI-8226 leukemia
[9] = test system: SN12C renal
[10] = test system: OVCAR-4 ovarian
[11] = test system: 786-0 renal
[12] = test system: HOP-62 NSCLC
[13] = test system: TK-10 renal
[14] = test system: CCRF-CEM leukemia
[15] = test system: HS 578T breast
[16] = test system: SR leukemia
[17] = test system: EKVX NSCLC
[18] = test system: OVCAR-5 ovarian
[19] = test system: OVCAR-3 ovarian
[20] = test system: SW-620 colon
[21] = test system: SF-295 CNS
[22] = test system: UACC-62 melanoma
[23] = test system: MDA-MB-231 breast
[24] = test system: NCI/ADR-RES ovarian
[25] = test system: MOLT-4 leukemia
[26] = test system: A498 renal
[27] = test system: SK-MEL-2 melanoma
[28] = test system: KM12 colon
[29] = test system: K-562 leukemia
[30] = test system: CAKI-1 renal
[31] = test system: UACC-257 melanoma
[32] = test system: PC-3 prostate
[33] = test system: RXF 393 renal
[34] = test system: NCI-H460 lung
[35] = test system: NCI-H226 lung
[36] = test system: T-47D breast
[37] = test system: BT-549 breast
[38] = test system: SF-268 CNS
[39] = test system: MALME-3M melanoma
[40] = test system: HCT-116 colon
[41] = test system: COLO 205 colon
[42] = test system: SF-539 CNS
[43] = test system: A549 NSCLC
[44] = test system: SNB-75 CNS
[45] = test system: LOX IMVI melanoma
[46] = test system: HOP-92 NSCLC
[47] = test system: DU-145 prostate
[48] = test system: HL-60(TB) leukemia
[49] = test system: IGROV1 ovarian
[50] = test system: NCI-H522 lung
[51] = test system: MDA-MB-435
[52] = test system: MCF7 breast
[53] = test system: M14 melanoma
[54] = test system: SK-OV-3 ovarian
[55] = test system: ACHN renal
[56] = test system: SK-MEL-28 melanoma
[57] = test system: U251 CNS
[58] = test system: MDA-N
[59] = test system: HCC-2998 colon

With `CC1=C2O[C@]3(O)C=C2C(=C(O)C1=O)[C@@H]1O[C@H](CC[C@H](C)/C=C(\C)C[C@@H](C)C[C@@H]3C)[C@H](C)[C@H](O)[C@H]1C` the GI50 [1] was 563 nM, the TGI [1] was 1170 nM and 1880 nM and the GI50 [2] was 216 nM. The TGI [2] was 529 nM and 504 nM, the GI50 [3] was 777 nM and the TGI [3] was 1660 nM and 1710 nM. For the same molecule, the GI50 [4] was 180 nM, the TGI [4] was 289 nM and 406 nM and the GI50 [5] was 1580 nM. The TGI [5] was 1980 nM and 3110 nM, the GI50 [6] was 169 nM and 234 nM and the TGI [6] was 472 nM and 597 nM. The GI50 [7] was 232 nM, the TGI [7] was 548 nM and 654 nM and the TGI [8] was 378 nM and 582 nM. For the same molecule, the GI50 [9] was 495 nM, the TGI [9] was 2150 nM and 1940 nM and the GI50 [10] was 229 nM. The TGI [10] was 560 nM and 637 nM, the GI50 [11] was 180 nM and the TGI [11] was 324 nM and 342 nM. For the same molecule, the GI50 [12] was 1390 nM, the TGI [12] was 709 nM and 3150 nM and the GI50 [13] was 336 nM. For the same molecule, the TGI [13] was 372 nM and 1160 nM, the GI50 [14] was 33.9 nM and the TGI [14] was 296 nM. The TGI [15] was 1490 nM, the TGI [16] was 4180 nM and the TGI [17] was 939 nM and 910 nM. The GI50 [18] was 767 nM, the TGI [18] was 3190 nM and 2080 nM and the GI50 [19] was 187 nM. The TGI [19] was 355 nM and 394 nM, the TGI [20] was 3470 nM and the GI50 [21] was 1640 nM. For the same molecule, the TGI [21] was 2300 nM and 3110 nM, the GI50 [22] was 356 nM and the TGI [22] was 695 nM and 1160 nM. For the same molecule, the GI50 [23] was 285 nM, the TGI [23] was 352 nM and 830 nM and the GI50 [24] was 559 nM. The TGI [24] was 1350 nM and 2680 nM, the GI50 [25] was 174 nM and the TGI [25] was 2340 nM and 688 nM. The GI50 [26] was 177 nM, the TGI [26] was 694 nM and 2930 nM and the GI50 [27] was 282 nM. The TGI [27] was 851 nM and 703 nM, the GI50 [28] was 376 nM and the TGI [28] was 1750 nM and 1270 nM. The TGI [29] was 4870 nM, the GI50 [30] was 295 nM and the TGI [30] was 1660 nM and 780 nM. For the same molecule, the GI50 [31] was 412 nM, the TGI [31] was 860 nM and 2340 nM and the TGI [32] was 1050 nM and 637 nM. For the same molecule, the TGI [33] was 434 nM, the GI50 [34] was 1420 nM and the TGI [34] was 1820 nM. For the same molecule, the GI50 [35] was 935 nM, the TGI [35] was 2120 nM and 2390 nM and the GI50 [36] was 105 nM and 184 nM. For the same molecule, the TGI [36] was 230 nM and 361 nM, the GI50 [37] was 878 nM and the TGI [37] was 863 nM and 2150 nM. For the same molecule, the GI50 [38] was 303 nM, the TGI [38] was 1140 nM and 892 nM and the TGI [39] was 480 nM and 334 nM. The GI50 [40] was 201 nM, the TGI [40] was 486 nM and 436 nM and the GI50 [41] was 165 nM. The TGI [41] was 256 nM and 313 nM, the GI50 [42] was 240 nM and the TGI [42] was 384 nM and 580 nM. For the same molecule, the GI50 [43] was 1610 nM, the TGI [43] was 2080 nM and 3390 nM and the GI50 [44] was 603 nM. The TGI [44] was 897 nM and 1350 nM, the GI50 [45] was 274 nM and the TGI [45] was 793 nM and 739 nM. For the same molecule, the GI50 [46] was 177 nM, the TGI [46] was 273 nM and 377 nM and the TGI [47] was 1030 nM and 659 nM. It also gave a GI50 [48] of 203 nM, a TGI [48] of 617 nM and a GI50 [49] of 272 nM. The TGI [49] was 324 nM and 664 nM, the TGI [50] was 321 nM and the GI50 [51] was 199 nM. The TGI [51] was 325 nM and 429 nM, the TGI [52] was 556 nM and 395 nM and the GI50 [53] was 220 nM. For the same molecule, the TGI [53] was 363 nM and 526 nM, the GI50 [54] was 1720 nM and the TGI [54] was 2130 nM and 3110 nM. For the same molecule, the GI50 [55] was 182 nM, the TGI [55] was 239 nM and 323 nM and the TGI [56] was 662 nM and 588 nM. For the same molecule, the GI50 [57] was 288 nM, the TGI [57] was 1160 nM and 752 nM and the GI50 [58] was 204 nM. For the same molecule, the TGI [58] was 398 nM and 446 nM, the GI50 [59] was 330 nM and the TGI [59] was 384 nM and 1160 nM.

Reference: PubChem BioAssay (NCI)
